Assay results from patent US7759331B2, “Pyridine-containing macroheterococylic compounds as kinase inhibitors” (Janssen Pharmaceutica NV, priority 2006, dated 2010).

Assays:
Assay in all cases: Protein kinase selectivity panel
Assay type in all cases: biochemical
Conditions in all cases: 1.0 μM compound, 10 μM ATP
PDK1(h) = target: T1, PDK1(h) (Homo sapiens, UniProt O15530)
T1 sequence (O15530 1-556): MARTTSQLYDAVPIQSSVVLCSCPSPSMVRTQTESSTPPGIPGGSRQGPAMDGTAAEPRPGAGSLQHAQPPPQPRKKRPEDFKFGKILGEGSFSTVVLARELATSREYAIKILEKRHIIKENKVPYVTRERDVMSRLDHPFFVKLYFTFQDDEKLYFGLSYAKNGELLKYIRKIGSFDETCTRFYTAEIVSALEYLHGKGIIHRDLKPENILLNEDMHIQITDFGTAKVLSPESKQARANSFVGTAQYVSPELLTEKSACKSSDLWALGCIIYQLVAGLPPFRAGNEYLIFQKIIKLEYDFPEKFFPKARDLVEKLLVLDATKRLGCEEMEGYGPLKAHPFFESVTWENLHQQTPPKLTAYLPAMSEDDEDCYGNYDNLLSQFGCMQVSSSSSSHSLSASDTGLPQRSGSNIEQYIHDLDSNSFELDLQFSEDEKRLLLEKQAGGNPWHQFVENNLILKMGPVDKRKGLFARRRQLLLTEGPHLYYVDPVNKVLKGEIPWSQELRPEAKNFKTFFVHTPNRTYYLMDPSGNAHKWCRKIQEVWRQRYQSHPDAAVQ
Procedure, shortened: (§1)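 At a fixed 1.0 μM compound, activity toward peptide or protein substrates was determined with ATP at 10 μM.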

Met(h) = Met(h) (Homo sapiens, UniProt P08581)
Procedure, shortened: as §1

Lyn(h) = Lyn(h) (Homo sapiens, UniProt P07948)
Procedure, shortened: as §1

CDK2/cyclinE(h) = CDK2/cyclinE(h) (Homo sapiens, UniProt P24941)
Procedure, shortened: as §1

Fms(h) = Fms(h) (Homo sapiens, UniProt P07333)
Procedure, shortened: as §1

PKCη(h) = PKCη(h) (Homo sapiens, UniProt P24723)
Procedure, shortened: as §1

IGF-1R(h) = IGF-1R(h) (Homo sapiens, UniProt P08069)
Procedure, shortened: as §1

MKK4(m) = target: T2, MKK4(m) (Mus musculus, UniProt P47809)
T2 sequence (P47809 1-397): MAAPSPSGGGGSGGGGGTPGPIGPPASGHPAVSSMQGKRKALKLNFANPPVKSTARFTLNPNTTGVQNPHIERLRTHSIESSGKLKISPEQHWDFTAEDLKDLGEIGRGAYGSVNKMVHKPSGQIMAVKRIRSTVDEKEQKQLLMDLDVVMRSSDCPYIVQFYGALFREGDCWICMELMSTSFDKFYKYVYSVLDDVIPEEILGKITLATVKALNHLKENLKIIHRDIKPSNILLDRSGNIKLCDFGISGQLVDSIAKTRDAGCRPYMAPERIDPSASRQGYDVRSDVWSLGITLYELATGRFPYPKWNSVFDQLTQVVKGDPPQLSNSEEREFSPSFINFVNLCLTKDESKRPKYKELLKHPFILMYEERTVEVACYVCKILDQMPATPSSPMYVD
Procedure, shortened: as §1

SAPK3(h) = target: T3, SAPK3(h) (Homo sapiens, UniProt P53778)
T3 sequence (P53778 1-367): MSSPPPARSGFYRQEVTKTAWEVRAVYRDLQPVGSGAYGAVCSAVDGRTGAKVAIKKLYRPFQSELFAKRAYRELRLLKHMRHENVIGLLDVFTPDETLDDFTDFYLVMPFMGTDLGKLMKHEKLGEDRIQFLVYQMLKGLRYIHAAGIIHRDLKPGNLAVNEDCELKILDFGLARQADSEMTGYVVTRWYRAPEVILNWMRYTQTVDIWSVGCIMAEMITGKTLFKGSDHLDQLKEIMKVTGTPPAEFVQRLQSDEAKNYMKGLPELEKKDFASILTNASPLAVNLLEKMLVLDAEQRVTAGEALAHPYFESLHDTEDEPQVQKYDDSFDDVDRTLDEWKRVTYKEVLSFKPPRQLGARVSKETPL
Procedure, shortened: as §1

CDK1/cyclinB(h) = CDK1/cyclinB(h) (Homo sapiens, UniProt P06493)
Procedure, shortened: as §1

PKBγ(h) = PKBγ(h) (Homo sapiens, UniProt Q9Y243)
Procedure, shortened: as §1

IKKα(h) = target: T4, IKKα(h) (Homo sapiens, UniProt O15111)
T4 sequence (O15111 1-745): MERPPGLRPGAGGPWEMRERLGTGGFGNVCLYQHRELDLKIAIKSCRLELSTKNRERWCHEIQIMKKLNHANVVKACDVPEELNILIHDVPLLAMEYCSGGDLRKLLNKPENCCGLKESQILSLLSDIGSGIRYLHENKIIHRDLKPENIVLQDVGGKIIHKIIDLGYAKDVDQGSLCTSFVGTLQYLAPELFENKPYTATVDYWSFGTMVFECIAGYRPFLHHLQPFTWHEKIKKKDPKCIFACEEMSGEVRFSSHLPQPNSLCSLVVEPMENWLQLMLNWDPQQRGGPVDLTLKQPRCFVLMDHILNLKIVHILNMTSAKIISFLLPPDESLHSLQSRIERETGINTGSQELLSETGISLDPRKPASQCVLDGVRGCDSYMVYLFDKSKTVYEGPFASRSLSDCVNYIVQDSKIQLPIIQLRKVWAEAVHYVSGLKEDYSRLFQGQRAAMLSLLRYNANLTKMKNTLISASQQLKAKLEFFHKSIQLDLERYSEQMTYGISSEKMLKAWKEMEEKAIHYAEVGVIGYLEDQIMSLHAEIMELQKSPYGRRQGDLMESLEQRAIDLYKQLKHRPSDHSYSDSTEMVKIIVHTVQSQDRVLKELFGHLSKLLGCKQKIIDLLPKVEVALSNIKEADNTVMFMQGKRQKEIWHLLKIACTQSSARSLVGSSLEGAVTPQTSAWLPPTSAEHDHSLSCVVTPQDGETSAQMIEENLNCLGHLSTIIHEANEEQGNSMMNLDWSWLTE
Procedure, shortened: as §1

Chain of Lyn(h) (P07948 whole entry): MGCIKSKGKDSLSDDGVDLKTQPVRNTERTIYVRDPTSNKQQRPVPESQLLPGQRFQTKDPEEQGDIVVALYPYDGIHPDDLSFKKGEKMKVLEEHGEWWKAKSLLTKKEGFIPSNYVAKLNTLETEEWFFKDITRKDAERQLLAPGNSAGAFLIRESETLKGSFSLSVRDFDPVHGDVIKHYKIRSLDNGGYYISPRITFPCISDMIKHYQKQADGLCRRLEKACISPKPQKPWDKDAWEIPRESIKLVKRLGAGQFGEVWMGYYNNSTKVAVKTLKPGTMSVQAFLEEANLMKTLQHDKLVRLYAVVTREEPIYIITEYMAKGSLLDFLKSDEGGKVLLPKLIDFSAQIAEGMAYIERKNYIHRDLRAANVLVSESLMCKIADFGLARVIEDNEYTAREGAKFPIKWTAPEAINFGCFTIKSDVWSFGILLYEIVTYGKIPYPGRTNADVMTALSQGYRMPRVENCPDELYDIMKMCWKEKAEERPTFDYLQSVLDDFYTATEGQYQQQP
Chain of PKCη(h) (P24723 whole entry): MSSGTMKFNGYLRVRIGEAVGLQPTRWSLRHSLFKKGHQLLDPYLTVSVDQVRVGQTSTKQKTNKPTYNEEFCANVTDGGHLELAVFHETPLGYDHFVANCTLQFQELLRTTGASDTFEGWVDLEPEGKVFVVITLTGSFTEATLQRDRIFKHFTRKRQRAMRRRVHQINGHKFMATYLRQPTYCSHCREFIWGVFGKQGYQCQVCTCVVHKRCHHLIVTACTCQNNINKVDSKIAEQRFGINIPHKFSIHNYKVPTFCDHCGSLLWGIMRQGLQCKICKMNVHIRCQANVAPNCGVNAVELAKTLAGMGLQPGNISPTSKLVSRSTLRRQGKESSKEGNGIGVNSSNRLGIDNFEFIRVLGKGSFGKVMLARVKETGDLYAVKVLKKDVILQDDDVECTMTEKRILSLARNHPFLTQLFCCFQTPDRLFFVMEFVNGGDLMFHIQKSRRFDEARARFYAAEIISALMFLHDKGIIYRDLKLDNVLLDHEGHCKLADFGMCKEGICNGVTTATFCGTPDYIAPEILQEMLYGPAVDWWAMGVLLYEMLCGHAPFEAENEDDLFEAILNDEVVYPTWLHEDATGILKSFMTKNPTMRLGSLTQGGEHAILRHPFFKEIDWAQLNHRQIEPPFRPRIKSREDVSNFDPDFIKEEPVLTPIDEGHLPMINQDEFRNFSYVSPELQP
Chain of IGF-1R(h) (P08069 31-1367): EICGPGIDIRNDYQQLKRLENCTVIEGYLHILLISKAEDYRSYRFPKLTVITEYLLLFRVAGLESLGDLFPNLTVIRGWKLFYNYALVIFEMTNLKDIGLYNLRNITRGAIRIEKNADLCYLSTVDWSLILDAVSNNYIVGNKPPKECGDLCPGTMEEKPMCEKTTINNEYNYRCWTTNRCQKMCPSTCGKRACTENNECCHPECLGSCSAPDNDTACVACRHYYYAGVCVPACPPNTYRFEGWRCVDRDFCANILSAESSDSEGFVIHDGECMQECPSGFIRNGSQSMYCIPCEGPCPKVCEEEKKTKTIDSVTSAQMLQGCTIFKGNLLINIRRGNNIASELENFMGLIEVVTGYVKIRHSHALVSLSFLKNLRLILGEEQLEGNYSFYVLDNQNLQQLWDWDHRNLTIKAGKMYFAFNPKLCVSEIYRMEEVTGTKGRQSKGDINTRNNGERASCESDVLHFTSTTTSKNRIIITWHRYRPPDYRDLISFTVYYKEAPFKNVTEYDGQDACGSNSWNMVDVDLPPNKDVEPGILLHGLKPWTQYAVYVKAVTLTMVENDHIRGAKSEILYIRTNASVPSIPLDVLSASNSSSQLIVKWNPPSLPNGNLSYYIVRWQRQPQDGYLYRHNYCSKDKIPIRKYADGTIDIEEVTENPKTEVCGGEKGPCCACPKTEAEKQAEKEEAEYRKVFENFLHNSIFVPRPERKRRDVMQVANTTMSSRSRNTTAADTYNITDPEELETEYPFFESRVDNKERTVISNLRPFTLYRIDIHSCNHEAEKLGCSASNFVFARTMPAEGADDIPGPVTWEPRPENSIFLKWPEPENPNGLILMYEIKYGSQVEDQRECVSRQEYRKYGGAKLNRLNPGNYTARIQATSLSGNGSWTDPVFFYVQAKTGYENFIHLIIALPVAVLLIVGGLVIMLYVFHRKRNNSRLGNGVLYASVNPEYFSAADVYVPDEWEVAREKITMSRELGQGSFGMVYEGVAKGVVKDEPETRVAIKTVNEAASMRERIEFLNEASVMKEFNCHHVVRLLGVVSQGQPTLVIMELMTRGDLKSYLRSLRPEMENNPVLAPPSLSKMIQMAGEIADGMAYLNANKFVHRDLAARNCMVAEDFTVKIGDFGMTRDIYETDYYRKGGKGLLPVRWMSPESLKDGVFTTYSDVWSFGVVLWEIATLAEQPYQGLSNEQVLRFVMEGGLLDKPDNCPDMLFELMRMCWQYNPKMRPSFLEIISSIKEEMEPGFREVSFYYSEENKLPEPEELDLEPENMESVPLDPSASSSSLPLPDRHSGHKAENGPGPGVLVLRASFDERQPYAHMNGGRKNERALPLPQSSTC
Chain of CDK1/cyclinB(h) (P06493 whole entry): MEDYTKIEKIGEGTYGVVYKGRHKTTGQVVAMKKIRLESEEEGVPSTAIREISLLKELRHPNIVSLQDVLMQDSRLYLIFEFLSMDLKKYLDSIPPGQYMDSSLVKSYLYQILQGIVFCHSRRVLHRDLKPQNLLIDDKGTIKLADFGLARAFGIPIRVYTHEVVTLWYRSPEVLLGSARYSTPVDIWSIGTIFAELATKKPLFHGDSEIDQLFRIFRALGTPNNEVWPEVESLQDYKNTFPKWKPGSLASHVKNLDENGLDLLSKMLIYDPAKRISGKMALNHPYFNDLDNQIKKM
Chain of CDK1/cyclinB(h) (P14635 whole entry partner): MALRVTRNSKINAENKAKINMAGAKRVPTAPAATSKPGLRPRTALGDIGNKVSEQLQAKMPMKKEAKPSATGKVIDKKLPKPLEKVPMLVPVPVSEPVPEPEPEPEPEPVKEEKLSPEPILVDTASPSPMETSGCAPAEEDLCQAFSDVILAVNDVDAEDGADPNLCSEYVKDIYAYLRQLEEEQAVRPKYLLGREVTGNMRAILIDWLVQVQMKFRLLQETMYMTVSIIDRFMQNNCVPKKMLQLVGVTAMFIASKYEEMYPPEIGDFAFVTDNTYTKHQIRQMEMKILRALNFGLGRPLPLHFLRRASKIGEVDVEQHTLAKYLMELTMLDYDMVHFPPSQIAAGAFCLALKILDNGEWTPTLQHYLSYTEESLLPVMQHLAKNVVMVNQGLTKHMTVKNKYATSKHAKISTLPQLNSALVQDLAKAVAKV
Chain of PKBγ(h) (Q9Y243 whole entry): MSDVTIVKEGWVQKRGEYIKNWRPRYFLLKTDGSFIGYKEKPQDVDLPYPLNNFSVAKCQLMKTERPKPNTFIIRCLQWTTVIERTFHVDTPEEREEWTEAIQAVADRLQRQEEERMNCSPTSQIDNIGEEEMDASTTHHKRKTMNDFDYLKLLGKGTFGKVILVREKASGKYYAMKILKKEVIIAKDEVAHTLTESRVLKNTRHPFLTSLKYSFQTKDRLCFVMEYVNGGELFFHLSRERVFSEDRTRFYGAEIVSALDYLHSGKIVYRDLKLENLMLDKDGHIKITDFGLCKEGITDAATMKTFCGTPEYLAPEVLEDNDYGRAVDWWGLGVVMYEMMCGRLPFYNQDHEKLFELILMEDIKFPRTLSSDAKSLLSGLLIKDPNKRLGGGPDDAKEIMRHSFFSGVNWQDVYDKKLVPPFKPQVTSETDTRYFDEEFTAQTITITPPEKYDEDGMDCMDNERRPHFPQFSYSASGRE
Chain of Fms(h) (P07333 20-972): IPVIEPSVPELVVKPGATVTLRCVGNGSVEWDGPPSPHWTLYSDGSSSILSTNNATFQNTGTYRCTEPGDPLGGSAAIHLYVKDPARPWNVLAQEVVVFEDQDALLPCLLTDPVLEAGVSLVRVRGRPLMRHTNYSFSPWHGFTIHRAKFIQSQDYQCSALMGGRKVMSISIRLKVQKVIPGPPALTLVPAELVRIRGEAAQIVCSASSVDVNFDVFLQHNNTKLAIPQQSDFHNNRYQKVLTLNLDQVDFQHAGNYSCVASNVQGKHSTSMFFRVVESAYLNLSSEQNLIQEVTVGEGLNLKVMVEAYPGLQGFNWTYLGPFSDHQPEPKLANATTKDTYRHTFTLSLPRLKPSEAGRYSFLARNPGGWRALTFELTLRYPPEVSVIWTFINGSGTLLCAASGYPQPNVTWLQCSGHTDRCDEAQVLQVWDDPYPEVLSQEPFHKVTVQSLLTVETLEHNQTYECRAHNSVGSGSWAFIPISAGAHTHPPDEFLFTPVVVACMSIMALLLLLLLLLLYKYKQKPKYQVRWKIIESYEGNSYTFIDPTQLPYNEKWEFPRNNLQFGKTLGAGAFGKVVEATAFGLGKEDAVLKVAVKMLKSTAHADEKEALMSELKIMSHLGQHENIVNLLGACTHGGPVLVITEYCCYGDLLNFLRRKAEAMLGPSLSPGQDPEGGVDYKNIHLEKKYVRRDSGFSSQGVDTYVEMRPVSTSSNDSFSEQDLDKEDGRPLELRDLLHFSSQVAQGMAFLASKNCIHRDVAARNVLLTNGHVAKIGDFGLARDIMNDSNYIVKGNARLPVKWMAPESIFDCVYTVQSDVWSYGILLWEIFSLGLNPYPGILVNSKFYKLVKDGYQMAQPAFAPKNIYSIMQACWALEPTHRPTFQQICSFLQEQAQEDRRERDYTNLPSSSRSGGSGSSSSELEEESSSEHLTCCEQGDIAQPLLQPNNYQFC

Compound | Activity at Protein Kinase Assays (% of control), PDK1(h) (PDK1(h)) | Activity at Protein Kinase Assays (% of control), Met(h) (Met(h)) | Activity at Protein Kinase Assays (% of control), Lyn(h) (Lyn(h)) | Activity at Protein Kinase Assays (% of control), CDK2/cyclinE(h) (CDK2/cyclinE(h)) | Activity at Protein Kinase Assays (% of control), Fms(h) (Fms(h)) | Activity at Protein Kinase Assays (% of control), PKCη(h) (PKCη(h)) | Activity at Protein Kinase Assays (% of control), IGF-1R(h) (IGF-1R(h)) | Activity at Protein Kinase Assays (% of control), MKK4(m) (MKK4(m)) | Activity at Protein Kinase Assays (% of control), SAPK3(h) (SAPK3(h)) | Activity at Protein Kinase Assays (% of control), CDK1/cyclinB(h) (CDK1/cyclinB(h)) | Activity at Protein Kinase Assays (% of control), PKBγ(h) (PKBγ(h)) | Activity at Protein Kinase Assays (% of control), IKKα(h) (IKKα(h))
CN(C)c1nc2ccc1CCCCn1cc(c3ccccc31)C1=C(C(=O)NC1=O)c1cn(c3ccccc13)CCC2 [Cpd 1, 31-(dimethylamino)-5,15,25,32-tetraazaheptacyclo[28.2.2.1^5,12.1^18,25.0^6,11.0^13,17.0^19,24]hexatriaconta-1(32),6,8,10,12(36),13(17),18(35),19,21,23,30,33-dodecaene-14,16-dione] | 115 % of control | 121 % of control | 107 % of control | 54 % of control | 94 % of control | 85 % of control | 84 % of control | 130 % of control | 78 % of control | 78 % of control | 93 % of control | 92 % of control
CN(C)c1cc2cc(n1)CCCn1cc(c3ccccc31)C1=C(C(=O)NC1=O)c1cn(c3ccccc13)CCC2 [Cpd 2, 20-(dimethylamino)-4,14,19,26-tetraazaheptacyclo[24.6.1.1^7,14.1^18,22.0^2,6.0^8,13.0^27,32]pentatriaconta-1(33),2(6),7(35),8,10,12,18(34),19,21,27,29,31-dodecaene-3,5-dione] | 104 % of control | 132 % of control | 76 % of control | 84 % of control | 101 % of control | 109 % of control | 37 % of control | 119 % of control | 115 % of control | 98 % of control | 106 % of control | 133 % of control
O=C1NC(=O)C2=C1c1cn(c3ccccc13)CCCc1cc(nc(N3CCCC3)c1)CCCn1cc2c2ccccc21 [Cpd 6, 20-pyrrolidin-1-yl-4,14,19,26-tetraazaheptacyclo[24.6.1.1^7,14.1^18,22.0^2,6.0^8,13.0^27,32]pentatriaconta-1(33),2(6),7(35),8,10,12,18(34),19,21,27,29,31-dodecaene-3,5-dione] | 107 % of control | 129 % of control | 87 % of control | 88 % of control | 99 % of control | 102 % of control | 42 % of control | 119 % of control | 103 % of control | 80 % of control | 103 % of control | 132 % of control
O=C1NC(=O)C2=C1c1cn(c3ccccc13)CCCc1ccc(c(N3CCCC3)n1)CCCn1cc2c2ccccc21 [Cpd 7, 31-pyrrolidin-1-yl-5,15,25,30-tetraazaheptacyclo[27.2.2.1^5,12.1^18,25.0^6,11.0^13,17.0^19,24]pentatriaconta-1(31),6,8,10,12(35),13(17),18(34),19,21,23,29,32-dodecaene-14,16-dione] | 100 % of control | 132 % of control | 78 % of control | 88 % of control | 106 % of control | 97 % of control | 106 % of control | 113 % of control | 114 % of control | 98 % of control | 105 % of control | 121 % of control
